Positions of bridges follow the written chain, without caps; N, C: chain ends. Non-standard residues stand in square brackets, D forms with d. Residues, ends and D or L forms follow the SMILES beside them. S5 = C=CCCC[C@](C)(N)C(=O)O
How the values were obtained:
THP-1 and OCI-AML3 cells = experiment: Viability assay of AML cells treated with venetoclax or BTSA1 alone or in combination; assay type: cell-based, human; settings: BTSA1 at ~EC10 dose, 24 hrs
From the text: Moreover, the synergistic effect of these two drugs is observed within hours, consistent with their kinetics of mitochondrial apoptosis activation.

OCI-AML3 leukemia cells = experiment: Synergistic cytotoxicity with BCL-2 inhibitors in OCI-AML3 leukemia cells; assay type: cell-based, human; settings: for IC50: Homo sapiens, OCI-AML-3, 24 h, 24 h treatment; for synergy with ABT-199 (venetoclax) / synergy with ABT-263 (navitoclax): non-cytotoxic doses, 24 h
Description: Viability assays were performed in at least triplicate and the data normalized to vehicle-treated control wells. IC50 values were determined by nonlinear regression analysis using Prism software (Graphpad).

BAX [1] = target: T1, BAX (Homo sapiens, UniProt Q07812); experiment: Competitive fluorescence polarization assay, FITC-BIM SAHBA2 from the BAX trigger site; assay type: binding; settings: for IC50: FITC-BIM SAHBA2 50 nM, BAX 500 nM, read-out: IC50, competition of FITC-BIM SAHBA2 from BAX
T1 construct: with serial dilutions of full-length BAX, BCL-XLΔC, MCL-1ΔNΔC, BFL-1/A1ΔC; made in house; host or cells: Escherichia coli
Description: (§1) Fluorescence polarization assays (FPA) were performed as previously described (Gavathiotis et al., 2012). Firstly, direct binding isotherms were generated by incubating FITC-BIM SAHBA2 (50 nM) with serial dilutions of full-length BAX, BCL-XLΔC, MCL-1ΔNΔC, BFL-1/A1ΔC and fluorescence polarization was measured at 20 minutes on a F200 PRO microplate reader (TECAN). Subsequently, in competition assays, a serial dilution of small molecule or acetylated BIM SAHBA2 (Ac-BIM SAHB) was combined with FITC-BIM SAHBA2 (50 nM), followed by the addition of recombinant protein at ˜EC75 concentration, as determined by the direct binding assay (BAX: 500 nM; BCL-XLΔC, MCL-1ΔNΔC, BFL-1/A1ΔC: 200 nM).
(§2) A competitive fluorescence polarization assay that evaluates the capacity of compounds to compete a fluorescein-labeled stapled peptide of the BIM BH3 helix, FITC-BIM SAHBA2, from the BAX trigger site, was used to determine the binding potency (Gavathiotis et al., 2008; Gavathiotis et al., 2012).

BFL-1/A1 = experiment: Competitive fluorescence polarization assay, FITC-BIM SAHBA2 bound to BFL-1/A1; assay type: binding, Human; settings: BTSA1 at 50 μM
Description: as §1, §2

BCL-XL = target: T2, BCL-XL (Homo sapiens, UniProt Q07817); experiment: Competitive fluorescence polarization assay, FITC-BIM SAHBA2 bound to BCL-XL; assay type: binding; settings: BTSA1 at 50 μM
T2 construct: BCL-XLΔC, MCL-1ΔNΔC, BFL-1/A1ΔC: 200 nM; made in house; host or cells: Escherichia coli
Description: as §1, §2

MCL-1 = experiment: Competitive fluorescence polarization assay, FITC-BIM SAHBA2 bound to MCL-1; assay type: binding, Human; settings: BTSA1 at 50 μM
Description: as §1, §2

[2] = test system: anti-apoptotic BCL-2 family proteins (BCL-2, BCL-XL, MCL-1); experiment: Pull down assay with biotinylated BTSA1, anti-apoptotic BCL-2 family proteins; assay type: binding, human
Description: OCI-AML3, MEFs and HPB-ALL cytosolic and mitochondrial lysates were generated by Dounce Homogenization. Cells were lysed by Dounce homogenizer in lysis buffer (LB) containing 10 mM Tris, pH 7.5, 1 mM EGTA, 200 mM sucrose plus Complete Protease Inhibitors. The cell lysates were centrifuged at 700×g for 10 min to remove unbroken cells and nuclei. The supernatants were centrifuged at 12000× g for 10 min at 4° C. and the resulting pellet was collected as the mitochondrial fraction and supernatant as the cytosolic fraction. The mitochondrial fraction was resuspended in LB+1% CHAPS to solubilize proteins. […] Biotin capture was achieved by incubation with high capacity streptavidin agarose (50 μL 50% slurry/reaction—Pierce) for 1 hour at room temperature. The streptavidin beads were washed (3×) at room temperature with 1×PBS. Cellular BAX bound to the biotinylated-BTSA1 was eluted by boiling for 20 minutes in LDS buffer and then subjected to BAX (2772S, Cell Signaling), BCL-2 (BD Biosciences Cat. 610539), BCL-XL (Cell Signaling Cat. 2764) and MCL-1 (Cell Signaling Cat. 4572) western blot analysis.

BAX [3] = target: T1, BAX; experiment: Direct fluorescence polarization binding of fluorescein-labeled BTSA1 to BAX; settings: fluorescein-labeled compound

T1 sequence (Q07812 whole entry): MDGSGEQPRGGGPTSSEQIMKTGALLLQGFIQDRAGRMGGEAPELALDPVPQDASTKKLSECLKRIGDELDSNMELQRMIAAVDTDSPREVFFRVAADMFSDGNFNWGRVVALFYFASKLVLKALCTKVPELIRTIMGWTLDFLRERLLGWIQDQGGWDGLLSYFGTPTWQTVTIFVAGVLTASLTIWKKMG
T2 sequence (Q07817 1-212 limits assumed): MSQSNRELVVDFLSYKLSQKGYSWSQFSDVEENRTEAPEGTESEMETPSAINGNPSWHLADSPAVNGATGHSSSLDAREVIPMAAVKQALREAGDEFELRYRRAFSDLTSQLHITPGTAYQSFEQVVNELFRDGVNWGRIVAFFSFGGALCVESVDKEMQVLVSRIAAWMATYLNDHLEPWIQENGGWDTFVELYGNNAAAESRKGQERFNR

CC1(C)CCC(CN2CCN(c3ccc(C(=O)NS(=O)(=O)c4ccc(NCC5CCOCC5)c([N+](=O)[O-])c4)c(Oc4cnc5[nH]ccc5c4)c3)CC2)=C(c2ccc(Cl)cc2)C1 [ABT-199, 4-(4-{[2-(4-Chlorophenyl)-4,4-dimethyl-1-cyclohexen-1-yl]methyl}-1-piperazinyl)-N-({3-nitro-4-[(tetrahydro-2H-pyran-4-ylmethyl)amino]phenyl}sulfonyl)-2-(1H-pyrrolo[2,3-b]pyridin-5-yloxy)benzamide]
EC50 of venetoclax in combination with BTSA1 (THP-1 and OCI-AML3 cells): low nM concentration | IC50 (OCI-AML3 leukemia cells; BAX activator concentration 0.625 μM): 3.91 µM | IC50 (OCI-AML3 leukemia cells; BAX activator concentration 1.25 μM): 4.8 µM | IC50 (OCI-AML3 leukemia cells; BAX activator concentration […]): 3.65 µM

CC[C@H](C)[C@H](NC(=O)[C@H](Cc1c[nH]c2ccccc12)NC(=O)[C@@H](NC(=O)[C@H](CCC(=O)O)NC(C)=O)[C@@H](C)CC)C(=O)N[C@@H](C)C(=O)N[C@@H](CCC(N)=O)C(=O)N[C@@H](CCC(=O)O)C(=O)N[C@@H](CC(C)C)C(=O)N[C@@H](CCCNC(=N)N)C(=O)N[C@@]1(C)CCCC=CCCC[C@@](C)(C(=O)N[C@@H](Cc2ccccc2)C(=O)N[C@@H](CC(N)=O)C(=O)N[C@@H](C)C(=O)N[C@@H](Cc2ccc(O)cc2)C(=O)N[C@@H](Cc2ccc(O)cc2)C(=O)N[C@@H](C)C(N)=O)NC(=O)[C@H](CC(=O)O)NC(=O)CNC(=O)[C@H]([C@@H](C)CC)NC1=O [BIM SAHBA2] (Ac-EIWIAQELR[S5]IGD[S5]FNAYYA-NH2; staple 10-14)
IC50 (BAX [1]): 0.28 µM | capacity to compete FITC-BIM SAHBA2 from BFL-1/A1 (BFL-1/A1): effectively competed | capacity to compete FITC-BIM SAHBA2 from BCL-XL (BCL-XL): effectively competed | capacity to compete FITC-BIM SAHBA2 from MCL-1 (MCL-1): effectively competed

CC1=NN(c2nc(-c3ccccc3)cs2)C(=O)C1=NNc1nccs1 [BTSA2]
reduction in binding capacity to BAX relative to BTSA1 (BAX [1]): ~10 fold | IC50 (BAX [1]): 3.7 µM

Cc1nc(N/N=C2\C(=O)N(c3nc(-c4ccccc4)cs3)N=C2c2ccccc2)sc1C [GAV2-006]
synergy with ABT-199 (venetoclax) (OCI-AML3 leukemia cells): significant synergistic cytotoxicity | synergy with ABT-263 (navitoclax) (OCI-AML3 leukemia cells): significant synergistic cytotoxicity

O=C1/C(=N\Nc2nccs2)C(c2ccccc2)=NN1c1nc(-c2ccc(F)cc2)cs1 [GAV2-008]
synergy with ABT-199 (venetoclax) (OCI-AML3 leukemia cells): significant synergistic cytotoxicity | synergy with ABT-263 (navitoclax) (OCI-AML3 leukemia cells): significant synergistic cytotoxicity

COc1ccc(C2=NN(c3nc(-c4ccccc4)cs3)C(=O)/C2=N\Nc2nccs2)cc1 [GAV2-010]
synergy with ABT-199 (venetoclax) (OCI-AML3 leukemia cells): significant synergistic cytotoxicity

O=C(CCCC[C@H]1SCC2NC(=O)NC21)NCCCOCCOCCOCCCNC(=O)c1ccc(-c2csc(N3N=C(c4ccccc4)C(=NNc4nccs4)C3=O)n2)cc1 (stereo partly drawn) [biotinylated BTSA1, N-(15-oxo-19-((4R)-2-oxohexahydro-1H-thieno[3,4-d]imidazol-4-yl)-4,7,10-trioxa-14-azanonadecyl)-4-(2-(5-oxo-3-phenyl-4-(2-(thiazol-2-yl)hydrazono)-4,5-dihydro-1Hpyrazol-1-yl)thiazol-4-yl)benzamide]
reduction in binding capacity to BAX relative to BTSA1 (BAX [1]): ten-fold | IC50 (BAX [1]): 2 µM | pull down of anti-apoptotic BCL-2 family proteins [2]: failed to pull down

O=C(NCCCOCCOCCOCCCNC(=S)Nc1ccc2c(c1)C(=O)OC21c2ccc(O)cc2Oc2cc(O)ccc21)c1ccc(-c2csc(N3N=C(c4ccccc4)C(=NNc4nccs4)C3=O)n2)cc1 [fluorescein-labeled BTSA1, N-(1-((3′,6′-dihydroxy-3-oxo-3H-spiro[isobenzofuran-1,9′-xanthen]-5-yl)amino)-1-thioxo-6,9,12-trioxa-2-azapentadecan-15-yl)-4-(2-(5-oxo-3-phenyl-4-(2-(thiazol-2-yl)hydrazineylidene)-4,5-dihydro-1H-pyrazol-1-yl)thiazol-4-yl)-benzamide]
EC50 (BAX [3]): 0.144 µM

From US11382898B2, “BAX activators and uses thereof in cancer therapy” (Albert Einstein College of Medicine, priority 2017, dated 2022)
